Assay results taken from ChEMBL document CHEMBL5131499, “Design, synthesis and glycosidase inhibition of C-4 branched LAB and DAB derivatives” (Eur J Med Chem, 2022).
pIC50: −log10 of the molar value.

Key:
[1] = target: T1, Sucrase-isomaltase, intestinal (Rattus norvegicus, UniProt P23739); test: Inhibition of rat intestinal isomaltase assessed as release of p-nitrophenol using p-nitrophenyl glycoside as substrate by spectrometric assay
[2] = target: T1, Sucrase-isomaltase, intestinal; test: Inhibition of rat intestinal sucrase assessed as release of p-nitrophenol using p-nitrophenyl glycoside as substrate by spectrometric assay
[3] = target: T2, Lysosomal alpha-glucosidase (Homo sapiens, UniProt P10253); test: Inhibition of human lysosomal alpha glucosidase assessed as release of p-nitrophenol using p-nitrophenyl glycoside as substrate by spectrometric assay
[4] = Inhibition of bovine liver beta-glucosidase assessed as release of p-nitrophenol using p-nitrophenyl glycoside as substrate by spectrometric assay; design: species or system Bos taurus
Prunus dulcis = test: Inhibition of almond beta-glucosidase assessed as release of p-nitrophenol at 1000 uM using p-nitrophenyl glycoside as substrate by spectrometric assay relative to control
[5] = Inhibition of yeast alpha-glucosidase assessed as release of p-nitrophenol using p-nitrophenyl glycoside as substrate by spectrometric assay; design: species or system Saccharomyces cerevisiae
Bos taurus [6] = species on record: Bos taurus; test: Inhibition of bovine liver beta-galactosidase assessed as release of p-nitrophenol at 1000 uM using p-nitrophenyl glycoside as substrate by spectrometric assay relative to control
Helix pomatia = test: Inhibition of snail beta-mannosidase assessed as release of p-nitrophenol at 1000 uM using p-nitrophenyl glycoside as substrate by spectrometric assay relative control
[7] = Inhibition of Aspergillus niger amyloglucosidase assessed as release of p-nitrophenol using p-nitrophenyl glycoside as substrate by spectrometric assay
[8] = Inhibition of porcine kidney alpha-trehalase assessed as release of p-nitrophenol using p-nitrophenyl glycoside as substrate by spectrometric assay; design: species or system Sus scrofa
Penicillium decumbens = test: Inhibition of Penicillium decumbens alpha-L-rhamnosidase assessed as release of p-nitrophenol at 1000 uM using p-nitrophenyl glycoside as substrate by spectrometric assay relative to control
Bos taurus [9] = species on record: Bos taurus; test: Inhibition of bovine liver beta-glucosidase assessed as release of p-nitrophenol at 1000 uM using p-nitrophenyl glycoside as substrate by spectrometric assay relative to control
Sus scrofa = species on record: Sus scrofa; test: Inhibition of porcine kidney alpha-trehalase assessed as release of p-nitrophenol at 1000 uM using p-nitrophenyl glycoside as substrate by spectrometric assay relative to control
Saccharomyces cerevisiae = test: Inhibition of yeast alpha-glucosidase assessed as release of p-nitrophenol at 1000 uM using p-nitrophenyl glycoside as substrate by spectrometric assay relative to control
[10] = target: Alpha-galactosidase (Coffea arabica) (UniProt Q42656); test: Inhibition of coffee beans alpha-galactosidase assessed as release of p-nitrophenol at 1000 uM using p-nitrophenyl glycoside as substrate by spectrometric assay relative to control
Chain of Alpha-galactosidase (Coffea arabica) (Q42656 16-378 limits assumed): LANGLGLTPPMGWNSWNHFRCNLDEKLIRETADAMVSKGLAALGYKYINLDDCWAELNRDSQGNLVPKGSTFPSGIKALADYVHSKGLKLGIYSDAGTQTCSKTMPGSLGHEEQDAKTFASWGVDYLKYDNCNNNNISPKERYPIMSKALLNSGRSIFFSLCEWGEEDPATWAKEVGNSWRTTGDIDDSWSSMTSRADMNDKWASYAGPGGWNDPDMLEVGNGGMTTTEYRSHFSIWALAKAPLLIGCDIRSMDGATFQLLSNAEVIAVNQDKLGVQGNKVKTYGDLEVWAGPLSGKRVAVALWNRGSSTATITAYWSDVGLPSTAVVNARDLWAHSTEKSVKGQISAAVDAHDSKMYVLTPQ

[11] = target: T3, Alpha-mannosidase (Canavalia ensiformis) (UniProt C0HJB3); test: Inhibition of jack bean alpha-mannosidase assessed as release of p-nitrophenol at 1000 uM using p-nitrophenyl glycoside as substrate by spectrometric assay relative to control
T3 sequence (whole entry): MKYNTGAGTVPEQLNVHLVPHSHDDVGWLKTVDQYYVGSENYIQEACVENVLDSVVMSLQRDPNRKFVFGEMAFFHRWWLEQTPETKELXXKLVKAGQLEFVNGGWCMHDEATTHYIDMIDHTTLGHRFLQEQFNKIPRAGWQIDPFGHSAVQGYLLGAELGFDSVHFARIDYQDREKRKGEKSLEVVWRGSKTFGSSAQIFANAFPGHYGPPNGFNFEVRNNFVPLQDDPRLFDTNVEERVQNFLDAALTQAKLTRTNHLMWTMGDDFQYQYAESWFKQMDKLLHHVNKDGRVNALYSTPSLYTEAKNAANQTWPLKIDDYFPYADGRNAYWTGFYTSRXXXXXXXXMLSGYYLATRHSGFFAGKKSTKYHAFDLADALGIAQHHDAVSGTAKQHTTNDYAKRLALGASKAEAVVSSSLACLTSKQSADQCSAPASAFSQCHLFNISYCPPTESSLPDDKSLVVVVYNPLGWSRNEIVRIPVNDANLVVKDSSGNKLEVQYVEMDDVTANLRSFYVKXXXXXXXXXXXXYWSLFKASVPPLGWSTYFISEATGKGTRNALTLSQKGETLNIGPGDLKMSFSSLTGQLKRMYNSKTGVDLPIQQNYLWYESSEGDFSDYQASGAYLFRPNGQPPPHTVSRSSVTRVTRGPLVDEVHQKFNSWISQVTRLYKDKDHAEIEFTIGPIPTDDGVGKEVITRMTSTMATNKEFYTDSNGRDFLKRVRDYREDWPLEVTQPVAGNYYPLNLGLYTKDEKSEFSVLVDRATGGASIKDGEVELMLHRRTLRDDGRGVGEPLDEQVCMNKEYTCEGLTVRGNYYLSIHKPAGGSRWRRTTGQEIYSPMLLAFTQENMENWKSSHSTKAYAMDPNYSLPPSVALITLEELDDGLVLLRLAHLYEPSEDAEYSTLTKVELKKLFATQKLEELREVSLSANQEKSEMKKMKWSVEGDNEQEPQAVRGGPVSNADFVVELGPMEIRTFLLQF

[12] = target: T4, Tissue alpha-L-fucosidase (Bos taurus) (UniProt Q2KIM0); test: Inhibition of bovine kidney alpha-L-fucosidase assessed as release of p-nitrophenol at 1000 uM using p-nitrophenyl glycoside as substrate by spectrometric assay relative to control
T4 sequence (whole entry): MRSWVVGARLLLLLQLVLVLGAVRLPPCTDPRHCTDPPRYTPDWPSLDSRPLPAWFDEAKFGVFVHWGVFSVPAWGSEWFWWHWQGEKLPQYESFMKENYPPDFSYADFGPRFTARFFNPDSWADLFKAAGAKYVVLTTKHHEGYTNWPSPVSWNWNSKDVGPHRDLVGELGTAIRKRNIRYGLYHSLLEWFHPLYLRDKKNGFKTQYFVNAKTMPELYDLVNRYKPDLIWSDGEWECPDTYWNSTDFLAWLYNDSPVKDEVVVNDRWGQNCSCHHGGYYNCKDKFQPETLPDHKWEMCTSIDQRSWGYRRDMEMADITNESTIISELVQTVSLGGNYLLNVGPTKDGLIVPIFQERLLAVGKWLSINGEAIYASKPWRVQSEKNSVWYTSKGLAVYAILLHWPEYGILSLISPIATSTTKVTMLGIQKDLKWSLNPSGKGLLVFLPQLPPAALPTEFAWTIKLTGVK

Aspergillus niger = test: Inhibition of Aspergillus niger amyloglucosidase assessed as release of p-nitrophenol at 1000 uM using p-nitrophenyl glycoside as substrate by spectrometric assay relative to control
Escherichia coli = test: Inhibition of Escherichia coli beta-glucuronidase assessed as release of p-nitrophenol at 1000 uM using p-nitrophenyl glycoside as substrate by spectrometric assay relative to control
Bos taurus [13] = species on record: Bos taurus; test: Inhibition of bovine liver beta-glucronidase assessed as release of p-nitrophenol at 1000 uM using p-nitrophenyl glycoside as substrate by spectrometric assay relative to control
Oryza sativa = test: Inhibition of rice alpha-glucosidase assessed as release of p-nitrophenol at 1000 uM using p-nitrophenyl glycoside as substrate by spectrometric assay relative to control
[14] = target: T2, Lysosomal alpha-glucosidase; test: Inhibition of human lysosomal alpha glucosidase assessed as release of p-nitrophenol at 1000 uM using p-nitrophenyl glycoside as substrate by spectrometric assay relative to control
Rattus norvegicus = species on record: Rattus norvegicus; test: Inhibition of rat intestinal alpha-trehalase assessed as release of p-nitrophenol at 1000 uM using p-nitrophenyl glycoside as substrate by spectrometric assay relative to control
[15] = Inhibition of rice alpha-glucosidase assessed as release of p-nitrophenol using p-nitrophenyl glycoside as substrate by spectrometric assay; design: species or system Oryza sativa
[16] = Inhibition of bovine liver beta-galactosidase assessed as release of p-nitrophenol using p-nitrophenyl glycoside as substrate by spectrometric assay; design: species or system Bos taurus
[17] = target: Sucrase-isomaltase, intestinal (Rattus norvegicus) (UniProt P23739); test: Inhibition of rat intestinal sucrase assessed as release of p-nitrophenol at 1000 uM using p-nitrophenyl glycoside as substrate by spectrometric assay relative to control
Chain of Sucrase-isomaltase, intestinal (Rattus norvegicus) (P23739 1-1013 limits assumed): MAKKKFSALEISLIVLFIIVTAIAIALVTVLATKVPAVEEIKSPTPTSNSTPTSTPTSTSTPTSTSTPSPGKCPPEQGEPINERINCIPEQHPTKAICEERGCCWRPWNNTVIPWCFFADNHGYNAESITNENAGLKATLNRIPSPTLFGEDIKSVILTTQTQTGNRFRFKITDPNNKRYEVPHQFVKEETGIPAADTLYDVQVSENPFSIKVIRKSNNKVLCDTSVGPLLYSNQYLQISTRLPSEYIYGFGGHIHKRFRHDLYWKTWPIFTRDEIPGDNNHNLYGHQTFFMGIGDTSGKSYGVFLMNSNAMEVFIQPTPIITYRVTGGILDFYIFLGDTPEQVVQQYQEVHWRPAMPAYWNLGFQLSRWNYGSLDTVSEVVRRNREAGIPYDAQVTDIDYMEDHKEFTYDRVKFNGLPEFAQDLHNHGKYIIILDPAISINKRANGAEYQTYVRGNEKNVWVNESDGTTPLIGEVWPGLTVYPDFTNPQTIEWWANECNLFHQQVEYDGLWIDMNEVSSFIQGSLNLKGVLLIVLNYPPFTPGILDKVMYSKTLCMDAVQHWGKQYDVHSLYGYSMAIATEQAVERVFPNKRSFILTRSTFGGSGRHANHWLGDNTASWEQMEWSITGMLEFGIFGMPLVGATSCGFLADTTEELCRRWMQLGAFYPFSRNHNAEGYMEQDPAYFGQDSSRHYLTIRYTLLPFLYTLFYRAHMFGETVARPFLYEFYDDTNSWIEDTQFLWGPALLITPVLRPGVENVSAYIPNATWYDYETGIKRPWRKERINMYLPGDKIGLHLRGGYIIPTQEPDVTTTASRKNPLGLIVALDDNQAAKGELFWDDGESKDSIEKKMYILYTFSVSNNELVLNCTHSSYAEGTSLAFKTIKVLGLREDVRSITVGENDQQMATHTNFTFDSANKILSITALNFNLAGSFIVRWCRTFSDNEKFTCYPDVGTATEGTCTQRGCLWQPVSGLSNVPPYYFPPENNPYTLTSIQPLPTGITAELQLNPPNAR
Chain of Sucrase-isomaltase, intestinal (Rattus norvegicus) (P23739 1014-1841 limits assumed): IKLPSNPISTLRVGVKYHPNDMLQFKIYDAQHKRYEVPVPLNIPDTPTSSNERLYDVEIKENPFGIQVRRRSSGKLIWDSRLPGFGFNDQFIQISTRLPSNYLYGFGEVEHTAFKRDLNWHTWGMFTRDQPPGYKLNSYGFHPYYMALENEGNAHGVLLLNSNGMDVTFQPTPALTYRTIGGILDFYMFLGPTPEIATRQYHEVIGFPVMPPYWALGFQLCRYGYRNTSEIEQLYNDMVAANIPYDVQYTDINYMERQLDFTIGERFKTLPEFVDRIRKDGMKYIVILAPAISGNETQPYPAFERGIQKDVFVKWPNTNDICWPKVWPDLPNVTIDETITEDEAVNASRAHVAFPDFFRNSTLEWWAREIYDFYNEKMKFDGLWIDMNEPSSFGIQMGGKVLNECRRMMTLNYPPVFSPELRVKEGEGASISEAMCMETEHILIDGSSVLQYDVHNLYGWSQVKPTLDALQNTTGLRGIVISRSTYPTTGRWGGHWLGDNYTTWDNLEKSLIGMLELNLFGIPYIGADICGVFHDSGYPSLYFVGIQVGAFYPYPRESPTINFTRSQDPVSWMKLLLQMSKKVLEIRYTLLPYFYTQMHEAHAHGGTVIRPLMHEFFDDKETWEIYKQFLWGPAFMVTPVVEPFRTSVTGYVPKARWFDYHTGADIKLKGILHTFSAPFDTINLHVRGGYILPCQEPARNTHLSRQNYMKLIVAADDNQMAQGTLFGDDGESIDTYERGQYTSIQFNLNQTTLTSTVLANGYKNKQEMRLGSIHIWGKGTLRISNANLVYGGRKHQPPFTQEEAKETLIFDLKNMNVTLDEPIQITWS

[18] = Inhibition of Escherichia coli beta-glucuronidase assessed as release of p-nitrophenol using p-nitrophenyl glycoside as substrate by spectrometric assay

T1 sequence (P23739 1-1013 limits assumed): as the sequence (P23739 1-1013 limits assumed) above
T1 sequence (P23739 1014-1841 limits assumed): as the sequence (P23739 1014-1841 limits assumed) above

Row | SMILES | pIC50 [1] | pIC50 [2] | pIC50 [3] | pIC50 [4] | inhibition (Prunus dulcis) [%] | inhibition (Bos taurus [6]) [%] | inhibition (Helix pomatia) [%] | inhibition (Penicillium decumbens) [%] | inhibition (Bos taurus [9]) [%] | inhibition (Sus scrofa) [%] | inhibition (Saccharomyces cerevisiae) [%] | inhibition [10] [%] | inhibition [11] [%] | inhibition [12] [%] | inhibition (Aspergillus niger) [%] | inhibition (Escherichia coli) [%] | inhibition (Bos taurus [13]) [%] | also measured
1 | OC[C@]1(c2ccccc2)NC[C@H](O)[C@H]1O | 4.49 | 6.32 | 6.20 | 4.15 | 0.9 | – | – | – | – | – | – | – | – | – | – | – | – | –
2 | OC[C@H]1NC[C@@H](O)[C@@H]1O | – | – | – | 3.20 | – | < 50 | < 50 | < 50 | – | – | – | – | – | – | – | – | – | pIC50 [5]: 6.82; pIC50 [7]: 3.44; pIC50 [8]: 5.32
3 | COc1ccc([C@@]2(CO)NC[C@H](O)[C@H]2O)cc1 | 3.19 | 6.48 | 3.22 | – | 7.1 | – | – | – | 43 | – | – | – | – | – | – | – | – | –
4 | CCCCCCCCC[C@@]1(CO)NC[C@H](O)[C@H]1O | 3.95 | 6.17 | 5.43 | 3.37 | 0 | – | – | – | – | – | – | – | – | – | – | – | – | –
5 | C[C@]1(CO)NC[C@@H](O)[C@@H]1O | – | 5.66 | 4.80 | – | 6.8 | 37.6 | 0 | 10.1 | 35.7 | 3.9 | 12.4 | 0.6 | 3.8 | 10.9 | 4.7 | 4.8 | 4.3 | –
6 | COc1ccc([C@]2(CO)NC[C@@H](O)[C@@H]2O)cc1 | – | 3.97 | – | – | 2.7 | 41 | 0 | 0 | 33.5 | 3 | 22 | 7.5 | 0.2 | 2.7 | 0 | 25 | 5.9 | inhibition (Oryza sativa): 37.8%; inhibition [14]: 40.2%
7 | CCCC[C@@]1(CO)NC[C@H](O)[C@H]1O | 4.89 | 6.64 | 5.62 | 3.65 | 0.9 | – | – | – | – | – | – | – | – | – | – | – | – | –
8 | C[C@@]1(CO)NC[C@H](O)[C@H]1O | 5.70 | 6.19 | 5.25 | 3.74 | 6.2 | – | – | – | – | – | – | – | – | – | – | – | – | –
9 | OC[C@]1(c2ccc(O)cc2)NC[C@H](O)[C@H]1O | – | 6.74 | 3.42 | – | 14.8 | 40.3 | 0 | 4.5 | 27.6 | 12.9 | – | 3.6 | 3.4 | 0 | 11.5 | 1.8 | 12.6 | inhibition (Rattus norvegicus): 1.2%; pIC50 [5]: 4.92; pIC50 [15]: 3.55
10 | Cc1ccc([C@@]2(CO)NC[C@H](O)[C@H]2O)cc1 | – | 6.00 | – | – | 7.8 | 22.6 | 0 | 7.4 | 16.7 | 0 | – | 0 | 0 | 3.3 | 8.3 | 0 | 8.7 | inhibition (Rattus norvegicus): 12.9%; pIC50 [5]: 4.24; pIC50 [15]: 3.16; inhibition [14]: 45.9%
11 | OC[C@@]1(c2cccc(F)c2)NC[C@@H](O)[C@@H]1O | – | 5.19 | – | – | 0.9 | 21.7 | 0 | 0 | 16.7 | 3.8 | 41.8 | 0 | 0 | 0 | 8.3 | 0 | 26.2 | inhibition (Rattus norvegicus): 0%; inhibition (Oryza sativa): 1.4%; inhibition [14]: 10.3%
12 | CCCCCCCCC[C@]1(CO)NC[C@@H](O)[C@@H]1O | – | 3.34 | 3.89 | – | 6.8 | – | 0 | 0 | 49.2 | 6.4 | – | 2.5 | 0 | 0 | 3.9 | 31.6 | 4.6 | pIC50 [5]: 3.94; pIC50 [15]: 3.14; pIC50 [16]: 3.32
13 | OC[C@@]1(c2ccccc2)NC[C@@H](O)[C@@H]1O | – | – | – | – | 2.3 | 34.1 | 0 | 0 | 29.6 | 0.8 | 22 | 9.9 | 0 | 0 | 0 | 7.3 | 1.8 | inhibition (Oryza sativa): 18.6%; inhibition [17]: 42.8%; inhibition [14]: 35%
14 | CCCC[C@]1(CO)NC[C@@H](O)[C@@H]1O | – | 5.64 | 4.10 | – | 8 | 36.9 | 3.6 | 11.3 | 34.3 | 2.4 | 32.7 | 4.6 | 1.9 | 20.8 | 2 | – | 7.2 | pIC50 [15]: 4.23; pIC50 [18]: 3.11
